The test system of assay [1] is Plasmopara viticola. Kind of assay: Test Example G: Downy mildew on vine. As to conditions: Downy mildew on vine (Neomuscat); 250 ppm spray, 2.5 ml/pot; assessed 7 to 10 days after inoculation.
For assay [2], the system named is Magnaporthe grisea. Put plainly: whole plant or invertebrate. It is filed as in vivo. As to conditions: Blast on rice; class of control value.
Assay [3] relates to Phytophthora infestans. Put plainly: whole plant or invertebrate. It counts as in vivo. As to conditions: Late blight on tomato; class of control value.
For assay [4], the system named is Colletotrichum orbiculare. Put plainly: Test Example H: Anthracnose on cucumber. As to conditions: Anthracnose on cucumber (Sagami Hanjiro); 250 ppm spray, 2.5 ml/pot; assessed 6 to 10 days after inoculation.
For assay [5], the system named is Alternaia brassicicola. Kind of assay: Test Example C: Alternaria sooty spot on cabbage. It is filed as in vivo. As to conditions: Alternaria sooty spot on cabbage; class of control value. From the text:
Seeds of a test plant (cabbage variety: Shikidori) were planted and cultivated until the cotyledons extended.
<Control Value> Control value=100{1−(n/3)}

Assay [6] concerns Blumeria graminis f. sp. hordei. Kind of assay: Test Example D: Powdery mildew on barley. Particulars: Powdery mildew on barley; class of control value.
Assay [7] has as its system Puccinia recondita. Put plainly: Test Example E: Brown rust on wheat. It is filed as in vivo. Particulars: Brown rust on wheat; class of control value.
Assay [8] has as its system Botrytis cinerea. Kind of assay: Test Example B: Gray mold on tomato. Particulars: Gray mold on tomato; class of control value.

Consider 14 compounds from patent US11147272B2, “Pyridone compounds and agricultural and horticultural fungicides comprising the same as active ingredients” (MITSUI CHEMICALS AGRO, INC., priority 2017, dated 2021).

Turning to `CC(C)c1ccc(=O)n(C)c1-c1c(F)cc(F)cc1F` [compound 13], the “Test G control value class” value in assay [1] is “L (50% or less control value)”. Also, the “Test A control value class” value in assay [2] was “H (more than 50% control value)”. In addition, in assay [3], the “Test F control value class” value was “L (50% or less control value)”. In addition, in assay [4], the “Test H control value class” value is “L (50% or less control value)”. Moreover, the “Test C control value class” value in assay [5] is listed as “L (50% or less control value)”. Besides, the “Test D control value class” value in assay [6] is “H (more than 50% control value)”. Moreover, in assay [7], the “Test E control value class” value is given as “L (50% or less control value)”. The “Test B control value class” value in assay [8] is “H (more than 50% control value)”.

On to `COc1cc(F)c(-c2c(C(C)C)ccc(=O)n2C)c(F)c1` [compound 14], for which the “Test G control value class” value in assay [1] is “L (50% or less control value)”. Also, in assay [2], the “Test A control value class” value is recorded as “H (more than 50% control value)”. For the same compound, the “Test F control value class” value in assay [3] was “H (more than 50% control value)”. In assay [4], the “Test H control value class” value is given as “H (more than 50% control value)”. For the same compound, in assay [5], the “Test C control value class” value is “H (more than 50% control value)”. Also, in assay [6], the “Test D control value class” value is “H (more than 50% control value)”. In addition, in assay [7], the “Test E control value class” value is on record as “H (more than 50% control value)”. The “Test B control value class” value in assay [8] is “H (more than 50% control value)”.

As to `CC(C)c1cc(Cl)c(=O)n(C)c1-c1c(F)cc(F)cc1F` [compound 15], the “Test G control value class” value in assay [1] is “L (50% or less control value)”. For the same compound, the “Test A control value class” value in assay [2] is recorded as “H (more than 50% control value)”. Further, the “Test F control value class” value in assay [3] is on record as “L (50% or less control value)”. In addition, the “Test H control value class” value in assay [4] was “H (more than 50% control value)”. For the same compound, the “Test C control value class” value in assay [5] was “H (more than 50% control value)”. The “Test D control value class” value in assay [6] is on record as “H (more than 50% control value)”. In addition, the “Test E control value class” value in assay [7] is “H (more than 50% control value)”. Also, in assay [8], the “Test B control value class” value was “H (more than 50% control value)”.

With `COc1cc(F)c(-c2c(C(C)C)cc(Cl)c(=O)n2C)c(F)c1` [compound 16], the “Test G control value class” value in assay [1] was “H (more than 50% control value)”. The “Test A control value class” value in assay [2] is “H (more than 50% control value)”. Also, in assay [3], the “Test F control value class” value is “L (50% or less control value)”. The “Test H control value class” value in assay [4] is “H (more than 50% control value)”. In addition, the “Test C control value class” value in assay [5] is “H (more than 50% control value)”. For the same compound, the “Test D control value class” value in assay [6] is on record as “H (more than 50% control value)”. Moreover, the “Test E control value class” value in assay [7] was “H (more than 50% control value)”. The “Test B control value class” value in assay [8] is given as “H (more than 50% control value)”.

With `CCn1c(-c2c(F)cccc2F)c(C(C)O)cc(Cl)c1=O` (stereo not shown) [compound 17], the “Test G control value class” value in assay [1] was “H (more than 50% control value)”. Besides, the “Test A control value class” value in assay [2] is recorded as “L (50% or less control value)”. The “Test F control value class” value in assay [3] is “H (more than 50% control value)”. Besides, the “Test H control value class” value in assay [4] is given as “H (more than 50% control value)”. The “Test C control value class” value in assay [5] is given as “H (more than 50% control value)”. The “Test D control value class” value in assay [6] was “L (50% or less control value)”. Further, in assay [7], the “Test E control value class” value was “H (more than 50% control value)”. Further, the “Test B control value class” value in assay [8] is listed as “H (more than 50% control value)”.

Take `CCn1c(-c2c(F)cccc2F)c(C(C)OC)cc(Cl)c1=O` (stereo not shown) [compound 18]: in assay [1], the “Test G control value class” value is listed as “H (more than 50% control value)”. Moreover, in assay [2], the “Test A control value class” value is recorded as “H (more than 50% control value)”. Further, the “Test F control value class” value in assay [3] is recorded as “H (more than 50% control value)”. Besides, the “Test H control value class” value in assay [4] is “H (more than 50% control value)”. The “Test C control value class” value in assay [5] is “H (more than 50% control value)”. Also, the “Test D control value class” value in assay [6] is given as “H (more than 50% control value)”. For the same compound, the “Test E control value class” value in assay [7] is on record as “H (more than 50% control value)”. In addition, the “Test B control value class” value in assay [8] is on record as “H (more than 50% control value)”.

With `CCOC(C)c1cc(Cl)c(=O)n(CC)c1-c1c(F)cccc1F` (stereo not shown) [compound 19], the “Test G control value class” value in assay [1] is given as “H (more than 50% control value)”. Moreover, in assay [2], the “Test A control value class” value is given as “H (more than 50% control value)”. In assay [3], the “Test F control value class” value is given as “L (50% or less control value)”. The “Test H control value class” value in assay [4] was “H (more than 50% control value)”. The “Test C control value class” value in assay [5] is on record as “H (more than 50% control value)”. Besides, the “Test D control value class” value in assay [6] is “H (more than 50% control value)”. Further, the “Test E control value class” value in assay [7] is “H (more than 50% control value)”. The “Test B control value class” value in assay [8] is listed as “H (more than 50% control value)”.

As for `CCn1c(-c2c(F)cccc2F)c(C(C)=O)cc(Cl)c1=O` [compound 22], the “Test G control value class” value in assay [1] is on record as “H (more than 50% control value)”. Also, in assay [2], the “Test A control value class” value was “L (50% or less control value)”. Also, the “Test F control value class” value in assay [3] was “L (50% or less control value)”. Further, the “Test H control value class” value in assay [4] is recorded as “H (more than 50% control value)”. Moreover, in assay [5], the “Test C control value class” value is given as “H (more than 50% control value)”. The “Test D control value class” value in assay [6] is listed as “L (50% or less control value)”. Also, the “Test E control value class” value in assay [7] is given as “H (more than 50% control value)”. Moreover, in assay [8], the “Test B control value class” value is given as “H (more than 50% control value)”.

On to `CCn1c(-c2c(F)cccc2F)c(C(C)(C)O)cc(Cl)c1=O` [compound 23], for which the “Test G control value class” value in assay [1] is on record as “L (50% or less control value)”. In addition, in assay [2], the “Test A control value class” value was “H (more than 50% control value)”. For the same compound, the “Test F control value class” value in assay [3] was “L (50% or less control value)”. In assay [4], the “Test H control value class” value was “H (more than 50% control value)”. Besides, the “Test C control value class” value in assay [5] is “H (more than 50% control value)”. The “Test D control value class” value in assay [6] is “H (more than 50% control value)”. Also, the “Test E control value class” value in assay [7] was “H (more than 50% control value)”. Moreover, the “Test B control value class” value in assay [8] was “H (more than 50% control value)”.

In the case of `CC=C(C)c1cc(Cl)c(=O)n(CC)c1-c1c(F)cccc1F` [compound 28], the “Test G control value class” value in assay [1] was “H (more than 50% control value)”. In addition, in assay [2], the “Test A control value class” value is “H (more than 50% control value)”. Also, the “Test F control value class” value in assay [3] is “L (50% or less control value)”. Further, the “Test H control value class” value in assay [4] is recorded as “H (more than 50% control value)”. Also, the “Test C control value class” value in assay [5] is recorded as “H (more than 50% control value)”. Besides, in assay [6], the “Test D control value class” value is reported as “H (more than 50% control value)”. For the same compound, the “Test E control value class” value in assay [7] is reported as “H (more than 50% control value)”. Further, the “Test B control value class” value in assay [8] is “H (more than 50% control value)”.

In the case of `CCC(C)c1ccc(=O)n(CC)c1-c1c(F)cc(F)cc1F` (stereo not shown) [compound 31], the “Test G control value class” value in assay [1] was “H (more than 50% control value)”. The “Test A control value class” value in assay [2] is “H (more than 50% control value)”. For the same compound, the “Test F control value class” value in assay [3] was “L (50% or less control value)”. In addition, the “Test H control value class” value in assay [4] is listed as “H (more than 50% control value)”. In addition, the “Test C control value class” value in assay [5] is reported as “H (more than 50% control value)”. Besides, the “Test D control value class” value in assay [6] is given as “H (more than 50% control value)”. For the same compound, in assay [7], the “Test E control value class” value is listed as “H (more than 50% control value)”. Moreover, the “Test B control value class” value in assay [8] was “H (more than 50% control value)”.

With `CCC(C)c1cc(Br)c(=O)n(CC)c1-c1c(F)cc(F)cc1F` (stereo not shown) [compound 32], the “Test G control value class” value in assay [1] is given as “L (50% or less control value)”. In addition, in assay [2], the “Test A control value class” value is recorded as “H (more than 50% control value)”. In assay [3], the “Test F control value class” value is listed as “L (50% or less control value)”. Besides, the “Test H control value class” value in assay [4] was “H (more than 50% control value)”. In addition, the “Test C control value class” value in assay [5] is “H (more than 50% control value)”. For the same compound, the “Test D control value class” value in assay [6] is given as “H (more than 50% control value)”. Also, in assay [7], the “Test E control value class” value is on record as “H (more than 50% control value)”. Besides, the “Test B control value class” value in assay [8] is recorded as “H (more than 50% control value)”.

Consider `CCC(C)c1cc(Cl)c(=O)n(CC)c1-c1c(F)cc(F)cc1F` (stereo not shown) [compound 33], for which, in assay [1], the “Test G control value class” value is “L (50% or less control value)”. In addition, the “Test A control value class” value in assay [2] was “H (more than 50% control value)”. For the same compound, the “Test F control value class” value in assay [3] is given as “L (50% or less control value)”. For the same compound, the “Test H control value class” value in assay [4] was “H (more than 50% control value)”. Besides, in assay [5], the “Test C control value class” value is given as “H (more than 50% control value)”. The “Test D control value class” value in assay [6] is “H (more than 50% control value)”. Besides, in assay [7], the “Test E control value class” value is reported as “H (more than 50% control value)”. In addition, the “Test B control value class” value in assay [8] is “H (more than 50% control value)”.

On to `CCC(C)c1ccc(=O)n(CC)c1-c1c(F)cc(OC)cc1F` (stereo not shown) [compound 34], for which the “Test G control value class” value in assay [1] was “H (more than 50% control value)”. In assay [2], the “Test A control value class” value is reported as “H (more than 50% control value)”. In assay [3], the “Test F control value class” value is listed as “L (50% or less control value)”. Further, in assay [4], the “Test H control value class” value is “H (more than 50% control value)”. Besides, the “Test C control value class” value in assay [5] was “H (more than 50% control value)”. Moreover, in assay [6], the “Test D control value class” value was “H (more than 50% control value)”. Moreover, in assay [7], the “Test E control value class” value is listed as “H (more than 50% control value)”. In addition, the “Test B control value class” value in assay [8] is “H (more than 50% control value)”.
